{"source": "patent US6710075B2", "about": "“Therapeutic compounds and methods” (The Government of the State of Sarawak, Malaysia, priority 2000, dated 2004)", "key": {"[1]": {"tested_on": "THP-1 cells", "experiment": "Protein synthesis, [14C]-leucine uptake, THP-1 cells", "format": "cell-based, human", "conditions": "48 hours", "text": "(§1) (a) Compounds A and B were identified from a bark sample of Aglaia leptantha through their ability to inhibit production of Tumour Necrosis Factor-α (TNF-α) by THP-1 human promonocytic leukemia cells (Tsuchiya, et al, Int. J. Cancer, 1980, 26(2):171-6) activated with lipopolysaccharide (LPS). Table 4 summarises the results comparing the activity of Compounds A and B for inhibition of TNF-α production to their effects on general cell metabolism measured using WST-1 reduction, DNA synthesis and protein synthesis assays for THP-1 cells. […] For comparison, the effects of Compounds A and B on A549 lung epithelial carcinoma cells (Leiber et al, Int. J. Cancer, 1976, 17(1)-62-70) were also measured and the data is also included in Table 4."}, "[2]": {"tested_on": "THP-1 cells", "experiment": "DNA synthesis, [14C]-thymidine uptake, THP-1 cells", "format": "cell-based, human", "conditions": "48 hours", "text": "as §1"}, "[3]": {"tested_on": "K562", "experiment": "Cytotoxic activity, sub-diploid DNA content by flow cytometry (propidium iodide)", "format": "cell-based, human", "description": "(§2) (b) Compound A was assessed for cytotoxic and cytostatic activity against a panel of cell lines derived from a variety of human tumour types in addition to THP-1 and A549 cells (Table 5). These included K562 leukemic cells (Lozzio and Lozzio, 1975, Blood 45:321-34), PC3 prostate tumour cells (Kaighn et al., 1979, Invest. Urol. 17:16-23) and SF268 glioblastoma cells (Westphal et al, 1985, Biochem. Biophys. Res. Commun., 132:284-9). […] However, the cytotoxic potency of Compound A increased dramatically after 6 days of culture for the K562, A549 and SF268 cells."}, "[4]": {"tested_on": "PC3", "experiment": "Cytotoxic activity, sub-diploid DNA content by flow cytometry (propidium iodide)", "format": "cell-based, human", "conditions": "Homo sapiens", "description": "as §2"}, "[5]": {"tested_on": "SF268", "experiment": "Cytotoxic activity, sub-diploid DNA content by flow cytometry (propidium iodide)", "format": "cell-based, human", "conditions": "Homo sapiens, SF-268, 72 h, SF268, 3 days; read-out: LC50 (3 day cultures)", "description": "as §2"}, "[6]": {"tested_on": "THP-1", "experiment": "Cytotoxic activity, sub-diploid DNA content by flow cytometry (propidium iodide)", "format": "cell-based, human", "conditions": "Homo sapiens, THP-1, 72 h, THP-1, 3 days; read-out: LC50 (3 day cultures)", "description": "as §2"}, "[7]": {"tested_on": "A549 cells", "experiment": "Proliferation of A549 cells, haemocytometer counting of trypan blue stained cells", "format": "cell-based, human", "conditions": "for cell death: after 9 days", "description": "A549 cells were seeded at ˜10,000 cells/well and cultured in the presence of the indicted concentrations of Compound A or paclitaxel. Cells were collected and the viable cell number determined by haemocytometer counting of trypan blue stained cells at the various times. The results are the averages ±SEM of triplicate cultures.\nThe cytostatic effect of Compound A on the proliferation of A549 cells was confirmed by directly counting the number of cells at intervals over a nine day period (FIG. 3). When compared to untreated cells 10 nM Compound A prevented the increase in cell number by more than 95% with fewer than 10% dead cells observed at this time (measured by trypan blue exclusion). Thus, under these conditions the decreased cell number can not simply be accounted for by increased cell death. […] At the higher concentrations of 50 nM and 250 nM Compound A had cytotoxic effects and increased cell death to 86% and 100% respectively after 9 days and accounts for the decline in cell number to levels below the original staring number at this time. At the non-cytotoxic concentration of 10 nM, Compound A has a rapid and potent cytostatic effect on A549 cells."}, "[8]": {"tested_on": "A549 cells", "experiment": "Reversibility of cytostatic effect in A549 cells after removal of compound", "format": "cell-based, human", "conditions": "A549, 10 nM for 5 days, then 4 days without compound", "description": "A549 cells were seeded at ˜10,000 cells/well and cultured in the presence of the indicted concentrations of Compound A or paclitaxel and the viable cell numbers determined by haemocytometer counting of trypan blue stained cells at the various times. On day 5 some of the cells were washed, resuspended in fresh medium lacking the various treatments and cultured for another 4 days prior to counting.\nThe reversibility of the effects of Compound A was determined. For this, A549 cells remained untreated or were cultured in the presence of various concentrations of Compound A or with paclitaxel for 5 days prior to removal of the compounds and the cells cultured for a further 4 days prior to determining cell number (FIG. 6). […] The effects of treatments which were deleterious to the cells, such as higher concentrations of Compound A or the presence of paclitaxel, were not reversed upon their removal."}, "[9]": {"tested_on": "A549 cells", "experiment": "Senescence-associated β-galactosidase (SA-β-gal) activity staining", "format": "cell-based, human", "conditions": "A549, 10-50 nM, 10 days", "description": "A549 cells were seeded at 10,000 cell/well in 6 well plates in the presence or absence of varying concentrations of Compound A (10-50 nM) or 250 nM doxorubicin for 10 days prior to their processing and staining overnight for senescence-associated β-galactosidase activity as described previously (Dimri et al., 1995, Proc Natl Acad Sci USA 1995 92(20):9363-7). […] PC, phase contrast microscopy. BF, bright field microscopy Magnification×200.\nThis was evaluated further by measuring senescence-associated β-galactosidase (SA-β-gal) activity, a biomarker previously described to correlate well with senescence of human cells (Dimri et al., Proc Natl Acad Sci USA 1995 92(20):9363-7). […] Therefore, in addition to Compound A A549 cells were also treated with doxorubicin as an experimental control."}, "[10]": {"tested_on": "PC3 human prostate tumour cells", "experiment": "Mouse xenograft tumour model", "format": "in vivo", "conditions": "3 mg/kg intraperitoneal three times a week", "description": "Athymic Balb/c nude mice (Rygard and Povisen, 1969, Acta Pathol Microbiol Scand, 77: 758) were inoculated subcutaneously in the dorsal flank with 2×10^6 PC3 cells. Compound A was administered (3 mg/kg) after eight days when the tumours became palpable by intraperitoneal injection three times a week. Compound A was first solubilized in ethanol then mixed 1:1 with cremaphore and diluted in saline for injection. Control animals were treated in an analogous manner with the same vehicle but lacking Compound A. (A) Effect of Compound A on mean tumour volume. Tumour volumes were measured using a micrometer caliper at the indicated times. The data represents mean tumour volume ±SEM (B) Effect of Compound A on mean tumour mass. At the end of the experiment (29 days post inoculation of PC3 cells) the mice were sacrificed, the tumours excised and then weighed. The data represents mean tumour weight ±SEM.\nThe ability of Compound A to inhibit growth of human tumour cells in vivo was assessed using male athymic mice injected subcutaneously in the dorsal flank region with 2×10^6 PC3 human prostate tumour cells. Compound A administration (3 mg/kg) by intraperitoneal injection commenced after eight days once the PC3 tumour was palpable and continued three times a week until 29 days after the initial inoculation of the tumour cells. At this time all mice were killed and tumours excised and weighed."}}, "note": "Like-named read-outs stand apart in the source and are kept apart here.", "data": [{"compound": "COC(=O)[C@H]1[C@@H](O)[C@@]2(O)c3c(OC)cc(OC4OC(C(O)CO)COC4OC)cc3O[C@@]2(c2ccc(OC)cc2)[C@@H]1c1ccccc1", "note": "(single isomer, unassigned) [Compound A]", "values": [{"measurement": "IC50", "setting": "[1]", "value": 60, "unit": "nM"}, {"measurement": "IC50", "setting": "[2]", "value": 15, "unit": "nM"}, {"measurement": "CC50", "setting": "[3]; Homo sapiens, K562, 72 h, K562, 3 days, read-out: LC50 (3 day cultures)", "value": "> 1000", "unit": "nM"}, {"measurement": "CC50", "setting": "[3]; Homo sapiens, K562, 144 h, K562, 6 days, read-out: LC50 (6 day cultures)", "value": 10, "unit": "nM"}, {"measurement": "CC50", "setting": "[3]; K562, 6 days, read-out: LC50 (6 day cultures)", "value": 12, "unit": "nM"}, {"measurement": "CC50", "setting": "[4]; PC-3, 72 h, PC3, 3 days, read-out: LC50 (3 day cultures)", "value": 18, "unit": "nM"}, {"measurement": "CC50", "setting": "[4]; PC-3, 144 h, PC3, 6 days, read-out: LC50 (6 day cultures)", "value": 12, "unit": "nM"}, {"measurement": "CC50", "setting": "[5]", "value": 461, "unit": "nM"}, {"measurement": "CC50", "setting": "[6]", "value": 36, "unit": "nM"}, {"measurement": "dead cells (trypan blue exclusion)", "setting": "[7]; A549, 10 nM", "value": "< 10", "unit": "%"}, {"measurement": "prevention of the increase in cell number compared to untreated cells", "setting": "[7]; A549, 10 nM, nine day period", "value": "more than 95%"}, {"measurement": "cell death", "setting": "[7]; A549, 50 nM", "value": 86, "unit": "%"}, {"measurement": "cell death", "setting": "[7]; A549, 250 nM", "value": 100, "unit": "%"}, {"measurement": "cell number after removal of compound", "setting": "[8]", "value": "over a five-fold increase in cell number"}, {"measurement": "population doublings after removal of compound", "setting": "[8]", "value": "2-3"}, {"measurement": "SA-β-gal activity", "setting": "[9]", "value": "failed to induce SA-β-gal activity"}, {"measurement": "reduction of mean tumour weight", "setting": "[10]; 29 days post inoculation", "value": "~60", "unit": "%"}, {"measurement": "mean tumour volume", "setting": "[10]; vs vehicle", "value": "greatly reduced increase in mean tumour volume"}]}]}
